Measurements published in patent US20260240842A1, “METHODS TO PREVENT THERAPY RESISTANCE IN MELANOMA VIA BLOCKING GENOMIC INSTABILITY” (THE REGENTS OF THE UNIVERSITY OF CALIFORNIA, priority 2022, published 2026).

How the values were obtained:
[1] = test system: KRAS^G12C PDAC cell lines (MIAPaCa-2, XWR200); assay: Long-term clonogenic growth, acquired MAPKi resistance in PDAC cell lines; format: cell-based, human; conditions: combined with MAPKi (type II RAFi+MEKi or KRAS G12Ci+MEKi); FIG. 6A to 6F
Description: (§1) FIGS. 6A-6J. DNA-PKi co-treatment prevents acquired MAPKi-resistance in KRAS^G12 human pancreatic ductal adenocarcinoma and non-small cell lung carcinoma cell lines. FIGS. 6A to 6J: Long-term clonogenic growth of PDAC (MIAPaCa-2, XWR200) (6A to 6F) or NSCLC (H358, H2122) (6G to 6J) cell lines showing acquired-resistant colonies to MEKi alone, type II RAFi+MEKi, or KRAS G12Ci+MEKi and their suppression by indicated co-treatments with DNA-PKi (NU7026) and/or PARPi (ABT888) at indicated concentrations. Top, representative cultures; bottom, quantifications over n=4 fields (mean±SD). Data representative of 2 independent repeats. Seeding densities (cells/well in 6-well dishes) and culture durations: MIAPaCa-2 (10,000; 30 days for 6A-6C), XWR200 (150,000; 23 days for 6D, 30 days for 6E, 26 days for 6F), H358 (40,000; 14 days for 6G, 29 days for 6H, 26 days for 6I), H2122 (20,000, 22 days for 6J). […]
(§2) For clonogenic assay, cells were plated at indicated cell densities in six-well plates and treated with inhibitor(s) the next day. […] Formazan was then dissolved in 100 μL DMSO, and the absorbance values were measured using an ELISA reader (SpectraMax Plus 384) at the wavelength of 570 nm, blanked with DMSO solution. […]

[2] = test system: KRAS^G12C NSCLC cell lines (H358, H2122); assay: Long-term clonogenic growth, acquired MAPKi resistance in NSCLC cell lines; format: cell-based, human; conditions: combined with MAPKi; FIG. 6G to 6J
Description: as §1, §2

With `C[C@]1(c2nc3c(C(N)=O)cccc3[nH]2)CCCN1` [ABT888, veliparib] the “suppression of acquired MAPKi resistance, number of PDAC cell lines” value [1] was “generally ineffective” and the “suppression of acquired MAPKi resistance, number of NSCLC cell lines” value [2] was “generally ineffective”.

In the case of `O=c1cc(N2CCOCC2)oc2c1ccc1ccccc12` [NU7026], the “suppression of acquired MAPKi resistance, number of PDAC cell lines” value [1] is reported as “two of two” and the “suppression of acquired MAPKi resistance, number of NSCLC cell lines” value [2] is reported as “one of two”.
